ChEMBL document CHEMBL5523747, “Discovery of a Series of Orally Bioavailable Androgen Receptor Degraders for the Treatment of Prostate Cancer” (J Med Chem, 2024)

target: T1, Protein cereblon/Androgen receptor (Homo sapiens, UniProt P10275+Q96SW2); test: PROTAC activity at AR/CRBN in human LNCaP cells assessed as protein degradation measured after 24 hrs incubation by imaging IF assay; format: cell-based; settings: not given
Target sequence in this assay (P10275 whole entry): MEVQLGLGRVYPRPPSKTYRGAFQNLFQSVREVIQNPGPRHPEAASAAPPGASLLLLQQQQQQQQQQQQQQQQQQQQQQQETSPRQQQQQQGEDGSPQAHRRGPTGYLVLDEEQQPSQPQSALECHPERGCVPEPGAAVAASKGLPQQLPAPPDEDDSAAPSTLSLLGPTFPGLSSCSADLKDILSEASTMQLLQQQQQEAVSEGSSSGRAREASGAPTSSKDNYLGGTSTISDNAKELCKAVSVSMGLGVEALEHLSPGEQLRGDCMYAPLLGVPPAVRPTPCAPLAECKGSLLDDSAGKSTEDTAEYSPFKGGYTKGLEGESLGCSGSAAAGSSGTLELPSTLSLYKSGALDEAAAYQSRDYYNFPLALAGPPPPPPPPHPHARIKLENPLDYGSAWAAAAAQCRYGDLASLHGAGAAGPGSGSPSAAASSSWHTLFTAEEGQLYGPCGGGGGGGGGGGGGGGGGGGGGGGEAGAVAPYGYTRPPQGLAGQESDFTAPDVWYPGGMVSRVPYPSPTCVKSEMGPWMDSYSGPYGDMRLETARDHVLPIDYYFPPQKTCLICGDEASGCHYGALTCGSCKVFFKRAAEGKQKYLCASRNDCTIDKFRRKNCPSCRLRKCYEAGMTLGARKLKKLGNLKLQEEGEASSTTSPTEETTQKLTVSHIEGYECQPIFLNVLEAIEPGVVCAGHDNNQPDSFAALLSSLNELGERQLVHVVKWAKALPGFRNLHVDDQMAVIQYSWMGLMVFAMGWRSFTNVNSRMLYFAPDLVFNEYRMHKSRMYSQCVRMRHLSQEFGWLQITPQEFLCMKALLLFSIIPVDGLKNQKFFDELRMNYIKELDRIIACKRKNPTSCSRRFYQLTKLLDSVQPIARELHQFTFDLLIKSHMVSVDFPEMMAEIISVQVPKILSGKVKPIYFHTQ
Target sequence in this assay (Q96SW2 whole entry): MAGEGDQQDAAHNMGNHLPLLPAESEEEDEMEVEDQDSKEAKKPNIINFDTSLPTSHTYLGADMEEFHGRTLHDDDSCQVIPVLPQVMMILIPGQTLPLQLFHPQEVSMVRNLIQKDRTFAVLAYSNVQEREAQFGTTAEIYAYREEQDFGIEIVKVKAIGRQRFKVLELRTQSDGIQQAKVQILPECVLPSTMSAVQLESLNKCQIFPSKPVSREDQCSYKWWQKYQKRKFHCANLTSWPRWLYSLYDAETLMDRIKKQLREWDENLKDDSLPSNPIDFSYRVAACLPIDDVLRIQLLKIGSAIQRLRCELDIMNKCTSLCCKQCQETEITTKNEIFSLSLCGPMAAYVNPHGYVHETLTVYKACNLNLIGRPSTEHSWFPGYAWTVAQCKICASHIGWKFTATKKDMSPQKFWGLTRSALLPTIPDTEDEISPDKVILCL

Question: Which DC50 does the source give for N#Cc1ccc(N2CCC(c3ccc(N4CCC(CN5CCN(c6cc7c(cc6F)C(=O)N(C6CCC(=O)NC6=O)C7=O)CC5)CC4)cc3)CC2)c(F)c1C(F)(F)F (configuration not stated) here?
Answer: 87 nM

Question: For N#Cc1ccc(N2CCC(c3ccc(N4CCC(CN5CCN(c6ccc7c(c6)CN(C6CCC(=O)NC6=O)C7=O)CC5)CC4)cc3)CC2)c(Cl)c1C(F)(F)F (configuration not stated), which DC50 is on record?
Answer: 48 nM

Question: For COc1cc(N2CCN(CC3CCN(c4ccc(C5CCN(c6ccc(C#N)c(C(F)(F)F)c6F)CC5)c(F)c4)CC3)CC2)cc2c1C(=O)N(C1CCC(=O)NC1=O)C2 (configuration not stated), which DC50 is on record?
Answer: 12 nM

Question: With N#Cc1ccc(N2CCC(c3ccc(OCCCCCN4CCN(c5ccc6c(c5)CN(C5CCC(=O)NC5=O)C6=O)CC4)cc3)CC2)cc1C(F)(F)F (configuration not stated) as the molecule, how does the DC50 read?
Answer: 15 nM

target: T1, Protein cereblon/Androgen receptor; test: PROTAC activity at AR/CRBN in human LNCaP cells assessed as maximal protein degradation measured after 24 hrs incubation by imaging IF assay relative to control; format: cell-based; settings: not given
Target sequence in this assay (P10275 whole entry, looked up): as the sequence (P10275 whole entry) above
Target sequence in this assay (Q96SW2 whole entry, looked up): as the sequence (Q96SW2 whole entry) above

Question: Which Emax does the source give for N#Cc1ccc(N2CCC(c3ccc(N4CCC(CN5CCN(c6cc7c(cc6F)C(=O)N(C6CCC(=O)NC6=O)C7=O)CC5)CC4)cc3)CC2)c(F)c1C(F)(F)F (configuration not stated) here?
Answer: 100%

Question: With N#Cc1ccc(N2CCC(c3ccc(N4CCC(CN5CCN(c6ccc7c(c6)CN(C6CCC(=O)NC6=O)C7=O)CC5)CC4)cc3)CC2)c(Cl)c1C(F)(F)F (configuration not stated) as the molecule, how does the Emax read?
Answer: 80%

Question: With COc1cc(N2CCN(CC3CCN(c4ccc(C5CCN(c6ccc(C#N)c(C(F)(F)F)c6F)CC5)c(F)c4)CC3)CC2)cc2c1C(=O)N(C1CCC(=O)NC1=O)C2 (configuration not stated) as the molecule, how does the Emax read?
Answer: 100%

Question: Which Emax does the source give for N#Cc1ccc(N2CCC(c3ccc(OCCCCCN4CCN(c5ccc6c(c5)CN(C5CCC(=O)NC5=O)C6=O)CC4)cc3)CC2)cc1C(F)(F)F (configuration not stated) here?
Answer: 94%

tested on: not listed separately; test: Metabolic stability in human liver microsomes assessed as intrinsic clearance; format: ADME, Microsome; settings: read-out: CLH

Question: Which microsomal CLint does the source give for N#Cc1ccc(N2CCC(c3ccc(OCCCCCN4CCN(c5ccc6c(c5)CN(C5CCC(=O)NC5=O)C6=O)CC4)cc3)CC2)cc1C(F)(F)F (configuration not stated) here?
Answer: 12 µL/min/mg

target: Protein cereblon/Androgen receptor (Homo sapiens, UniProt P10275+Q96SW2, L702H); test: PROTAC activity at CRBN/AR L702H mutant (unknown origin) expressed in human LNCaP cells assessed as protein degradation measured after 24 hrs incubation by imaging IF assay; format: cell-based; settings: not given
Sequence (P10275 whole entry L702H, stated change not applied): as the sequence (P10275 whole entry) above, with L702H counted along it
Sequence (Q96SW2 whole entry, stated change not applied): as the sequence (Q96SW2 whole entry) above

Question: With N#Cc1ccc(N2CCC(c3ccc(N4CCC(CN5CCN(c6cc7c(cc6F)C(=O)N(C6CCC(=O)NC6=O)C7=O)CC5)CC4)cc3)CC2)c(F)c1C(F)(F)F (configuration not stated) as the molecule, how does the DC50 read?
Answer: 992 nM

Question: With N#Cc1ccc(N2CCC(c3ccc(N4CCC(CN5CCN(c6ccc7c(c6)CN(C6CCC(=O)NC6=O)C7=O)CC5)CC4)cc3)CC2)c(Cl)c1C(F)(F)F (configuration not stated) as the molecule, how does the DC50 read?
Answer: 144 nM

Question: With COc1cc(N2CCN(CC3CCN(c4ccc(C5CCN(c6ccc(C#N)c(C(F)(F)F)c6F)CC5)c(F)c4)CC3)CC2)cc2c1C(=O)N(C1CCC(=O)NC1=O)C2 (configuration not stated) as the molecule, how does the DC50 read?
Answer: 469 nM

tested on: Protein cereblon/Androgen receptor (Homo sapiens), P10275+Q96SW2 [L702H]; test: PROTAC activity at CRBN/AR L702H mutant (unknown origin) expressed in human LNCaP cells assessed as maximal protein degradation measured after 24 hrs incubation by imaging IF assay relative to control; format: cell-based; settings: not given

Question: Which Emax does the source give for N#Cc1ccc(N2CCC(c3ccc(N4CCC(CN5CCN(c6cc7c(cc6F)C(=O)N(C6CCC(=O)NC6=O)C7=O)CC5)CC4)cc3)CC2)c(F)c1C(F)(F)F (configuration not stated) here?
Answer: 100%

Question: With COc1cc(N2CCN(CC3CCN(c4ccc(C5CCN(c6ccc(C#N)c(C(F)(F)F)c6F)CC5)c(F)c4)CC3)CC2)cc2c1C(=O)N(C1CCC(=O)NC1=O)C2 (configuration not stated) as the molecule, how does the Emax read?
Answer: 100%

tested on: not listed separately; test: Volume of distribution at steady state in CD-1 mouse at 1 mg/kg, po and 0.5 mg/kg, iv; format: ADME, organism-based; settings: in vivo

Question: With COc1cc(N2CCN(CC3CCN(c4ccc(C5CCN(c6ccc(C#N)c(C(F)(F)F)c6F)CC5)c(F)c4)CC3)CC2)cc2c1C(=O)N(C1CCC(=O)NC1=O)C2 (configuration not stated) as the molecule, how does the Vdss read?
Answer: 2.2 L/kg

tested on: not listed separately; test: Half life in CD-1 mouse at 1 mg/kg, po and 0.5 mg/kg, iv; format: ADME, organism-based; settings: in vivo

Question: For COc1cc(N2CCN(CC3CCN(c4ccc(C5CCN(c6ccc(C#N)c(C(F)(F)F)c6F)CC5)c(F)c4)CC3)CC2)cc2c1C(=O)N(C1CCC(=O)NC1=O)C2 (configuration not stated), which half-life is on record?
Answer: 17 h

tested on: not listed separately; test: Oral bioavailability in CD-1 mouse at 1 mg/kg; format: ADME, organism-based; settings: in vivo

Question: With COc1cc(N2CCN(CC3CCN(c4ccc(C5CCN(c6ccc(C#N)c(C(F)(F)F)c6F)CC5)c(F)c4)CC3)CC2)cc2c1C(=O)N(C1CCC(=O)NC1=O)C2 (configuration not stated) as the molecule, how does the bioavailability read?
Answer: 50%
